What all share (format): in vivo, mice
The test system of assay [1] is immune effector cell populations in blood. The assay can be described thus: FACS analysis of immune effector cell populations in blood, CT26/KSA model. The method, then: Immune effector cell populations in blood were analyzed by FACS. Blood was collected from the retro-orbital sinus of each mouse. Red blood cells were eliminated using lysis buffer. After blocking with rat IgG (1:50), samples were incubated with a 7-color cocktail of antibodies against CD4, CD8, CD25, CD44, CD62L, CD11b, and DX5. Samples were run on a FacsARIA and analyzed for various cell subpopulations.
For orientation: In flow cytometry, cells or beads pass a laser one at a time.

A further assay relates to CT26 colon carcinoma. The assay can be described thus: tumor growth assay, CT26 model. The following applies: Experiment CT26-4; 8 Gy followed by i.v. EMD521873 days 2, 3, 4. From the text:
CT26 cells, a murine colon epithelial cell line derived by intrarectal injection of N-nitroso-N-methylurethane in BALB/C mice, were transfected to express the human KS antigen (KSA or EpCAM) that was cloned by PCR and expressed in parental cells using a retroviral vector (Gillies 1998). CT26/KSA cells were maintained in DMEM, supplemented with 10% heat inactivated fetal bovine serum, L-glutamine, vitamins, sodium pyruvate, non-essential amino acids, penicillin/streptomycin and Geneticin® (G418) (Life Technologies, Inc.) at 37° C. and 7% CO2. G418 was added to maintain KSA expression. CT26 and CT26/KSA cells were implanted in female BALB/C mice.
For the tumor growth assay, cells growing exponentially in culture were injected as a single cell suspension in 100 μl of PBS intramuscularly into the upper legs of the mice. In experiments using a dual tumor model, cells were also implanted in the flanks of the mice. […] Thereafter, animal survival was monitored. […] Mice were treated on days 0 to 6 and day 17, and tumor size was measured twice weekly for the duration of the study.
(§1) Tumors were measured with calipers in three dimensions for the duration of the experiment. Tumor volumes were calculated using the equation: […]
In the CT26 model (Experiment CT26-4), tumors were irradiated with either 4 or 8 Gy followed by i.v. EMD521873 on days 2, 3, and 4. […] Immune response in the tumor was not monitored.

Another assay has as its system B16 melanoma. Nature of the assay: tumor growth assay, B16 model. The following applies: Experiment B16-1; 10 Gy d0 followed by i.v. EMD521873 days 3, 4, 5. As to the method: B16 cells, a murine melanoma cell line, were maintained in RPMI 1640, supplemented with 10% heat inactivated fetal bovine serum, L-glutamine, sodium pyruvate, non-essential amino acids, penicillin/streptomycin (Life Technologies, Inc.) at 37° C. and 7% CO2. B16 cells were implanted in female C57BL/6 mice.
For the tumor growth assay, cells growing exponentially in culture were injected as a single cell suspension in 100 μl of PBS intramuscularly into the upper legs of the mice. In experiments using a dual tumor model, cells were also implanted in the flanks of the mice. After tumors had become established, treatment was initiated (day 0). In Experiment LLC-7, tumors were implanted in the flank until established. Mice were treated on days 0 to 9, then, on day 12, tumors were excised using survival surgery. Thereafter, animal survival was monitored. […] Mice were treated on days 0 to 6 and day 17, and tumor size was measured twice weekly for the duration of the study.
as §1
In addition, there was a moderate, but significant increase in certain immune response markers in the tumor as measured by immune marker gene expression profiles with CD25, TNFA, TYROBP, ICOS and CD45 being modulated >4-fold compared to either therapy alone.

Data on one substance can be found in patent US20100330029A1, “Cancer Treatments with Radiation and Immunocytokines” (Merck Patent GmbH, priority 2008, published 2010).

For “dI-NHS76γ2(h)(FN>AQ)-ala-IL2(D20T) [EMD521873]”, the “CD4+CD25+ lymphocyte subpopulation in the blood” value in assay [1] (radiation followed by EMD521873 (combination)) was “increased”. In assay [1] (radiation followed by EMD521873, compared to either therapy alone), the “increase in effector T cells in the blood” value is listed as 4 fold. Besides, the tumor growth entry in the assay on CT26 colon carcinoma was “blocked tumor growth beyond either therapy alone”. For the same substance, in the assay on B16 melanoma, the anti-tumor activity entry is “greater anti-tumor activity compared to either treatment alone”.
